Values of other authors as cited in the Kinase Knowledgebase extract (Sharma et al. 2016).
pIC50: −log10 of the molar value.

biological target: CDK2 (human) (UniProt P24941); assay: Enzyme Assay

SMILES | pIC50
CNS(=O)(=O)Cc1ccc(NC=C2C(=O)Nc3ccc4ncsc4c32)cc1 | 7.58
O=C1Nc2ccccc2C1=CNc1ccc(-c2cnco2)c2c1CS(=O)(=O)C2 | 8.05

Results, then the molecule that gave them:

pIC50 | SMILES
7.60 | NS(=O)(=O)c1ccc(NN=C2C(=O)Nc3ccc(C(=O)NCCn4ccnc4)cc32)cc1
8.33 | O=C1Nc2ccc3ncsc3c2C1=CNc1ccc(S(=O)(=O)NCO)cc1
8.48 | CC(C)Oc1cccc2c1C(=NNc1ccc(S(N)(=O)=O)cc1)C(=O)N2

biological target: EGFR (UniProt P00533); assay: EGFr Inhibition
Sequence (P00533 whole entry, looked up): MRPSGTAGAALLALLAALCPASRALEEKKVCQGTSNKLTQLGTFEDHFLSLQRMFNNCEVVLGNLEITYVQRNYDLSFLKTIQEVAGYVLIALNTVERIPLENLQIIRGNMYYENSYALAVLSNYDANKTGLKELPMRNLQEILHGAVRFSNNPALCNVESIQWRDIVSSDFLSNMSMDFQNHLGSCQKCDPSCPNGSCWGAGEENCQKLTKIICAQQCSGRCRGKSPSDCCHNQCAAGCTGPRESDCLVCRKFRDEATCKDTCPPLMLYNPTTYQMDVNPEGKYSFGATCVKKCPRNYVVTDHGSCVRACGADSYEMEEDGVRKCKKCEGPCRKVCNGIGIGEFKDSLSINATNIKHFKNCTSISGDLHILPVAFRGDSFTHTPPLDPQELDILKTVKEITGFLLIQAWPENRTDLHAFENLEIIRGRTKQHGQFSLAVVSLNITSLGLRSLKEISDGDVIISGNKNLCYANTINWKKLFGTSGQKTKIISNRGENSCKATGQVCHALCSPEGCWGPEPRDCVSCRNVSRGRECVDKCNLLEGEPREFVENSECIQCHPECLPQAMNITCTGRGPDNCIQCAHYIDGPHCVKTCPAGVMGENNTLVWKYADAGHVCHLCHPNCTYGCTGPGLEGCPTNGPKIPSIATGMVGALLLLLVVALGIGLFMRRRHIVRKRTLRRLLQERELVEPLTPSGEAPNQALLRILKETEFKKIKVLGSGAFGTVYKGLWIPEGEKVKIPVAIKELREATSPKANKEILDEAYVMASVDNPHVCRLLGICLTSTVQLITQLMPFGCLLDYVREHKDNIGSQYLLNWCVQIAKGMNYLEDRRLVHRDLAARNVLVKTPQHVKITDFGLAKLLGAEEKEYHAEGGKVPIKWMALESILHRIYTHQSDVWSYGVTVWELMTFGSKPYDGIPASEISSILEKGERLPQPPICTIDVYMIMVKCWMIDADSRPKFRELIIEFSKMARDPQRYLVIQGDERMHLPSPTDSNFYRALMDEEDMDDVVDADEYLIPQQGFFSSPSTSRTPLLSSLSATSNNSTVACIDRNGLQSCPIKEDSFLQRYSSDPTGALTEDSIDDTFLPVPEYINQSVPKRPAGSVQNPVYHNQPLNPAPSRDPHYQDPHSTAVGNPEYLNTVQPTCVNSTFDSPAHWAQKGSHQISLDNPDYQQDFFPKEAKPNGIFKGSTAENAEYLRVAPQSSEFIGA

pIC50 | SMILES
4.12 | Cn1c(=O)c(-c2c(Cl)cccc2Cl)cc2cnc(NCc3ccccc3)nc21
4.12 | CCOC(=O)c1ccc(Nc2ncc3cc(-c4c(Cl)cccc4Cl)c(=O)n(C)c3n2)cc1
4.82 | CC(C)(C)OC(=O)Nc1ccc(Nc2n[nH]c3ncnc(Nc4cccc(Cl)c4)c23)cc1
4.12 | Cn1c(=O)c(-c2c(Cl)cccc2Cl)cc2cnc(NC3CCCCC3)nc21
